Laboratory results as given in patent US10189870B2, “Crystalline form of oxazolidinone antibiotics and preparation method, composition and use thereof” (Hangzhou Pushai Pharmaceutical Technology Co., Ltd., priority 2014, dated 2019).
In brackets after ≈: the same amount, converted by molar mass. Where two headings read alike, the source gives them in different places.

Tests used:
[1] = Solubility in water, filtrate content measured by HPLC; assay type: physicochemical; conditions: for solubility at 10 h: water, 25 °C, thermodynamic from solid
Description: High Performance Liquid Chromatogram (HPLC) analysis data are collected from Agilent 1260 and the chemical workstation is B.04. The corresponding parameters are as follows: chromatographic column Eclipst XDB-C18, 5 μm, 4.6×250 mm, H-005#, column temperature 25° C., flow rate 0.3 ml/min, mobile phase 13% acetonitrile and 87% water (0.0025M ammonium bicarbonate), wavelength 254 nm, sample size 10 μL and operation duration 20 min.
In 100 mL of water was added 20.0 mg of Form I prepared in preparation example 1 or 20 mg of Form II prepared in example 1, and stirred for 10 hours at 25° C., filtered, the content of the filtrate was directly measured by HPLC.

[2] = Isothermal adsorption curve (hygroscopicity); assay type: physicochemical; conditions: for hygroscopicity (in words): isothermal adsorption curve
Description: The Isothermal Adsorption Curve data are collected by TA Instruments Q5000 TGA. The instrument control software is Thermal Advantage and the analysis software is Universal Analysis. Generally, take 1 to 10 mg of the sample and place it in a platinum pan, and record weight changes of the sample during the course of the relative humidity changing from 0% to 80% then to 0%. Depending on samples, different adsorption and desorption steps may be used.

[3] = Stability test under high temperature and bright light, HPLC purity; assay type: physicochemical; conditions: for Change in value of maximum individual impurity content: increase
Description: High Performance Liquid Chromatogram (HPLC) analysis data are collected from Agilent 1260 and the chemical workstation is B.04. The corresponding parameters are as follows: chromatographic column […] XDB-C18, 5 μm, 4.6×250 mm, H-005#, column temperature 25° C., flow rate 0.3 ml/min, mobile phase 13% acetonitrile and 87% water (0.0025M ammonium bicarbonate), wavelength 254 nm, sample size 10 μL and operation duration 20 min. Form I of TR-701FA prepared in preparation example 1 and Form II of TR-701FA of the present invention were compared in the stability test by being stored for 10 days under conditions of high temperature and bright light. The high temperature was 80° C. and the light was 6,000 lx. HPLC purities and maximum individual impurity contents of the compounds were tested before and after the storage, and the results were shown in Table 3.

[4] = Storage stability at 25° C. and 60% RH; assay type: physicochemical; conditions: stored for 6 months at 25° C. and 60% RH
[5] = cited from earlier work
[6] = aqueous solution or acid solution; cited from earlier work
[7] = 0 day vs 10 days at 80° C. and 6,000 lx
[8] = high temperature (80° C.) and lighting (6,000 lx) for 10 days

| Compound | solubility at 10 h ([1]; at room temperature, read-out: water solubility) | hygroscopicity (in words) [2] | HPLC purity ([3]; 0 day) | Maximum individual impurity content ([3]; 0 day) | Change in value of maximum individual impurity content [3, 7] | HPLC purity [3, 8] | Maximum individual impurity content [3, 8] | purity and crystalline form after storage [4] | solubility in water (in words) [1] | solubility at 10 h ([1]; stirred 10 hours at 25° C. (room temperature), filtrate by HPLC, read-out: solubility in water) | weight change on isothermal adsorption curve ([2]; relative humidity range of 20% to 80% RH) | Change in value of HPLC purity ([3]; 0 day vs 10 days at 80° C. and 6,000 lx, positive = decrease) | solubility relative to tedizolid (in words) [5] | stability in solution (in words) [6] |
| --- | --- | --- | --- | --- | --- | --- | --- | --- | --- | --- | --- | --- | --- | --- |
| Cn1nnc(-c2ccc(-c3ccc(N4C[C@H](COP(=O)(O)O)OC4=O)cc3F)cn2)n1 [Form II of TR-701FA, (R)-3-(4-(2-(2-methyltetrazol-5-yl)pyridine-5-yl)-3-fluorophenyl)-5-hydroxymethyl oxazolidin-2-onedihydrogenphosphate] | 168 µg/mL (≈ 373 µM) | lower hygroscopicity than the known Form I | 98.3% | 1.6% | 0.1% | 98.4% | 1.7% | remain unchanged |  |  |  |  |  |  |
| Cn1nnc(-c2ccc(-c3ccc(N4C[C@H](COP(=O)(O)O)OC4=O)cc3F)cn2)n1 [Form I of TR-701FA, (R)-3-(4-(2-(2-methyltetrazol-5-yl)pyridine-5-yl)-3-fluorophenyl)-5-hydroxymethyl oxazolidin-2-onedihydrogenphosphate] |  | high hygroscopicity | 98.7% | 1.3% | 1.2% | 96.6% | 2.5% |  | low solubility in water | 118 µg/mL (≈ 262 µM) | approximately 1.56% | 2.1% |  |  |
| Cn1nnc(-c2ccc(-c3ccc(N4C[C@H](COP(=O)(O)O)OC4=O)cc3F)cn2)n1 [TR-701FA, (R)-3-(4-(2-(2-methyltetrazol-5-yl)pyridine-5-yl)-3-fluorophenyl)-5-hydroxymethyl oxazolidin-2-onedihydrogenphosphate] |  |  |  |  |  |  |  |  |  |  |  |  | better solubility than tedizolid | stable in aqueous solution or acid solution |
